Results published in patent publication EP4789671A1, “PHARMACEUTICAL COMPOSITION CONTAINING URACIL DERIVATIVE” (priority 2023, dated 2025).
“And” between values parts separate entries of the source, which are not always exact repeats. Equal values may be shown once. Read-outs that look alike come from different tables or passages of the source.

How the values were obtained:
[1] = system: SARS-CoV-2 hCoV-19/Japan/TY41-702/2022 strain (Omicron BE.1/BA.5-like); design: species or system Syrian hamsters; details: hamster, in vivo
[2] = system: SARS-CoV-2; test: Inhibitory activity of cytopathic effect (CPE) in VeroE6/TMPRSS2 cells (Test Example 3); assay type: cell-based
[3] = system: HCoV-OC43; test: microbe, parasite or virus in culture; assay type: cell-based; details: Betacoronavirus 1, OC43, MRC5; MRC-5 cells, 72 hours
[4] = system: SARS-CoV-2 hCoV-19/Japan/TY11-927/2021; assay type: in vivo, Syrian hamsters; details: aged (11-month-old) hamsters
[5] = system: SARS-CoV-2 hCoV-19/Japan/TY7-501/2021; test: Effect of human, mouse and hamster sera on anti-SARS-CoV-2 activity (Test Example 7); assay type: cell-based; details: Severe acute respiratory syndrome coronavirus 2, 24 h, VeroE6/TMPRSS2 cells, viral RNA, 1 day
[6] = system: SARS-CoV-2 hCoV-19/Japan/TY41-702/2022 strain (Omicron BE.1/BA.5-like); design: species or system Syrian hamsters; details: hamster, in vivo; remark: listed apart in the source
[7] = system: SARS-CoV-2 hCoV-19/Japan/TY41-702/2022 strain (Omicron BE.1/BA.5-like); assay type: in vivo, Syrian hamsters
[8] = system: SARS-CoV-2 hCoV-19/Japan/TY11-927/2021 (Delta); assay type: in vivo, Syrian hamsters; details: 4 days after initiation of co-housing
[9] = system: SARS-CoV-2; test: Cytopathic effect (CPE) suppression test using HEK293T/ACE2-TMPRSS2 cells (Test Example 1); assay type: cell-based; details: Severe acute respiratory syndrome coronavirus 2, HEK-293T, 72 h
[10] = system: SARS-CoV-2 hCoV-19/Japan/TY41-702/2022 (Omicron BE.1/BA.5-like); test: Viral proliferation-suppression effect using human airway epithelial cells (Test Example 8); assay type: cell-based; details: Severe acute respiratory syndrome coronavirus 2, Epithelial cell, 48 h
[11] = Cytotoxicity in MRC-5 cells in the absence of virus (Test Example 5); assay type: cell-based; details: human
Protocol: MRC-5 cells (2×10^4 cells/well) suspended in growth medium (DMEM supplemented with 10% FBS and penicillin-streptomycin) were seeded into 96-well plates on the day before infection. On the following day, HCoV-OC43 (300 TCID50/well) suspended in maintenance medium (MEM supplemented with 2% FBS and penicillin-streptomycin) was added to infect the cells for 1 hour. The viral fluid is then removed, maintenance medium containing the reagent to be tested is added, and cultured for 72 hours in a CO2 incubator. To evaluate the cytotoxicity of the reagent to be tested, the same procedure was performed in the absence of virus.
The plate that has been cultured for 72 hours is returned to room temperature, subsequently CellTiter-Glo (registered trademark) 2.0 is dispensed into each well, and the plate is mixed using a plate mixer. After standing for a predetermined period of time, the luminescent signal (Lum) is measured using a plate reader.

[12] = system: HCoV-229E; test: microbe, parasite or virus in culture; assay type: cell-based; details: Human coronavirus 229E, MRC5; MRC-5 cells, 72 hours
[13] = molecular target: T1, Recombinant SARS-CoV-2 3CL Protease (Severe acute respiratory syndrome coronavirus 2, UniProt P0DTD1); test: Inhibitory activity test on SARS-CoV-2 3CL protease (Test Example 2-1); assay type: biochemical; details: 8 µM substrate, 6 nM or 0.6 nM enzyme, 3 to 5 hours
T1 construct: Recombinant SARS-CoV-2 3CL Protease; purchased

N#CCn1c(N2CC3(C2)CC(F)(F)C3)c(-c2ccc(F)c(Cl)c2)c(=O)n(-c2cncc(Cl)c2)c1=O [Compound I-1]
lung weight/body weight [1]: 8.24 mg/g and 5.75 mg/g and 5.57 mg/g
EC50 ([2]; Severe acute respiratory syndrome coronavirus 2, VeroE6/TMPRSS2, Alpha, B. 1. 1. 7, strain QHN002): 3.85 ± 1.41 nM
EC50 ([2]; Severe acute respiratory syndrome coronavirus 2, VeroE6/TMPRSS2, Ancestral, Pango lineage A, strain WK-521): 8.77 ± 1.92 nM
EC50 ([2]; Severe acute respiratory syndrome coronavirus 2, VeroE6/TMPRSS2, Beta, B. 1. 351, strain TY8-612): 9.64 ± 1.2 nM
EC50 ([2]; Severe acute respiratory syndrome coronavirus 2, VeroE6/TMPRSS2, Delta, AY. 122, strain TY11-927): 4.91 ± 1.29 nM
EC50 ([2]; Severe acute respiratory syndrome coronavirus 2, VeroE6/TMPRSS2, Gamma, P. 1, strain TY7-501): 8.91 ± 1.62 nM
EC50 ([2]; Severe acute respiratory syndrome coronavirus 2, VeroE6/TMPRSS2, Omicron BA. 1. 1, strain TY38-871): 2.63 nM
EC50 ([2]; Severe acute respiratory syndrome coronavirus 2, VeroE6/TMPRSS2, Omicron BA. 2, strain TY40-385): 7.38 ± 3.82 nM
EC50 ([2]; Severe acute respiratory syndrome coronavirus 2, VeroE6/TMPRSS2, Omicron BA. 2. 12. 1, strain TY41-721): 2.27 ± 0.26 nM
EC50 ([2]; Severe acute respiratory syndrome coronavirus 2, VeroE6/TMPRSS2, Omicron BA. 2. 75, strain TY41-716): 8.44 ± 1.25 nM
EC50 ([2]; Severe acute respiratory syndrome coronavirus 2, VeroE6/TMPRSS2, Omicron BA. 4. 1, strain TY41-703): 2.45 ± 0.4 nM
EC50 ([2]; Severe acute respiratory syndrome coronavirus 2, VeroE6/TMPRSS2, Omicron BA. 4. 6, strain TY41-763): 6.91 ± 1.21 nM
EC50 ([2]; Severe acute respiratory syndrome coronavirus 2, VeroE6/TMPRSS2, Omicron BA. 5. 2. 1, strain TY41-704): 6.8 ± 1.38 nM
EC50 ([2]; Severe acute respiratory syndrome coronavirus 2, VeroE6/TMPRSS2, Omicron BE. 1/BA. 5-like, strain TY41-702): 6.54 ± 3.49 nM
EC50 ([2]; Severe acute respiratory syndrome coronavirus 2, VeroE6/TMPRSS2, Omicron BF. 7, strain TY41-820): 9.49 ± 0.56 nM
EC50 ([2]; Severe acute respiratory syndrome coronavirus 2, VeroE6/TMPRSS2, Omicron BF. 7. 4. 1, strain TY41-828): 7.39 ± 1.97 nM
EC50 ([2]; Severe acute respiratory syndrome coronavirus 2, VeroE6/TMPRSS2, Omicron BQ. 1. 1, strain TY41-796): 11 ± 1.7 nM
EC50 ([2]; Severe acute respiratory syndrome coronavirus 2, VeroE6/TMPRSS2, Omicron CH. 1. 1. 11, strain TY41-832): 5.69 ± 2.44 nM
EC50 ([2]; Severe acute respiratory syndrome coronavirus 2, VeroE6/TMPRSS2, Omicron XBB. 1, strain TY41-795): 5.11 ± 2.15 nM
EC50 ([2]; Severe acute respiratory syndrome coronavirus 2, VeroE6/TMPRSS2, Omicron XBB. 1. 5, strain 23-018): 7.4 ± 1.08 nM
EC50 ([2]; Severe acute respiratory syndrome coronavirus 2, VeroE6/TMPRSS2, Omicron XBB. 1. 9. 1, strain TY41-951): 12.6 ± 0.9 nM
EC50 ([2]; Severe acute respiratory syndrome coronavirus 2, VeroE6/TMPRSS2, Omicron XBB. 1. 16, strain TY41-984): 7.06 ± 2 nM
EC50 ([2]; Severe acute respiratory syndrome coronavirus 2, VeroE6/TMPRSS2, Omicron XBF, strain TY41-831): 6.27 ± 3.3 nM
EC50 ([2]; Severe acute respiratory syndrome coronavirus 2, VeroE6/TMPRSS2, Omicron XE, strain TY41-686): 7.1 ± 2.59 nM
EC50 [3]: 92 ± 21 nM
survival [4]: all hamsters survived until 10 days after infection
body weight loss ([4]; up to 10 days): suppression of the body weight loss was observed
EC90 ([5]; extrapolated to 100% hamster serum by linear regression, read-out: Hamster serum PA-EC90): 8.17 nM
EC90 ([5]; extrapolated to 100% human serum by linear regression, read-out: Human serum PA-EC90): 7.9 nM
EC90 ([5]; extrapolated to 100% mouse serum by linear regression, read-out: Mouse serum PA-EC90): 19.8 nM
body weight [6]: the decrease in body weight was suppressed
body weight loss ([7]; hamster, in vivo): suppression of the body weight loss was observed
viral titers in nasal turbinate homogenates ([7]; hamster, in vivo): 4.80 log10 TCID50/mL and 3.36 log10 TCID50/mL and 5.38 log10 TCID50/mL and 5.01 log10 TCID50/mL
plasma concentration exhibiting the effect of suppressing viral proliferation in lung and nasal turbinate homogenates ([7]; hamster, in vivo, sc): ≥ 12 ng/mL
plasma concentrations at the time of viral infection exhibiting the effect of suppressing body weight loss ([7]; prophylactic subcutaneous administration): ≥ 6 ng/mL
plasma concentrations immediately before infection (3 mg/kg subcutaneous, administered one day prior to infection): 6.1 ng/mL
plasma concentrations immediately before infection (3 mg/kg subcutaneous, administered three days prior to infection): 5.9 ng/mL
plasma concentrations immediately before infection (10 mg/kg subcutaneous, administered one day prior to infection): 12.5 ng/mL
plasma concentrations immediately before infection (10 mg/kg subcutaneous, administered three days prior to infection): 3.0 ng/mL
numbers of non-infected hamsters (Contact) in which viral titers in nasal lavage fluid or supernatants of lung homogenate reached the detection limit (1.8 log10 TCID50/mL) or higher ([8]; 3 mg/kg single subcutaneous to Contact 12 hours prior to co-housing): 5/6
numbers of non-infected hamsters (Contact) in which viral titers in nasal lavage fluid or supernatants of lung homogenate reached the detection limit (1.8 log10 TCID50/mL) or higher ([8]; 10 mg/kg single subcutaneous to Contact 12 hours prior to co-housing): 6/6
numbers of non-infected hamsters (Contact) in which viral titers in nasal lavage fluid or supernatants of lung homogenate reached the detection limit (1.8 log10 TCID50/mL) or higher ([8]; 30 mg/kg single subcutaneous to Contact 12 hours prior to co-housing): 3/6
numbers of non-infected hamsters (Contact) in which viral titers in nasal lavage fluid or supernatants of lung homogenate reached the detection limit (1.8 log10 TCID50/mL) or higher ([8]; 90 mg/kg single subcutaneous to Contact 12 hours prior to co-housing): 0/6
EC50 [9]: 1.66 nM
EC90 [10]: 2.41 ± 1.61 nM
CC50 at 72 h [11]: > 100000 nM
EC50 [12]: 3570 ± 510 nM

[2H]c1cc(F)c(Cl)c([2H])c1-c1c(N2CC3(C2)CC(F)(F)C3)n(CC#N)c(=[18O])n(-c2cncc(Cl)c2)c1=[18O] [Compound I-2]
EC50 [9]: 2.36 nM

C#CCn1c(N2CC3(C2)CC(F)(F)C3)c(-c2ccc(F)c(Cl)c2)c(=O)n(-c2cncc(Cl)c2)c1=O [Compound II-1]
IC50 [13]: 0.68 nM
